Like-named read-outs stand apart in the source and are kept apart here.
Assays:
[1] = test system: P. falciparum strain 3D7 gametocytes; assay: alamarBlue gametocyte viability assay, strain 3D7
[2] = test system: Asexual parasites of P. falciparum strain 3D7; assay: SYBR Green viability assay on asexual parasites; format: cell-based, Plasmodium falciparum; details: Plasmodium falciparum, read-out: Activity against asexual parasites EC50
HepG2 cells = assay: Cytotoxicity in mammalian HepG2 cell line; details: for % Max response: HepG2; for IC50 (μM) in HepG2 cells / IC50 (μM) in HepG2: Inactive = no significant activity at highest tested concentration (46 μM)
[3] = Plasmodium falciparum, 3D7, read-out: Gametocytocidal activity EC50, Table 7
[4] = Plasmodium falciparum, 3D7, read-out: 3D7-IC50
[5] = Homo sapiens, HepG2, read-out: IC50 (μM) in HepG2 cells
[6] = read-out: Gametocyte IC50, mean of at least 3 independent experiments, P. falciparum 3D7 gametocyte
[7] = Plasmodium falciparum, 3D7, read-out: Gametocyte IC50
[8] = Plasmodium falciparum, 3D7, read-out: IC50 against gametocytes

| SMILES | EC50 [1, 3] | EC50 ([2]; 3D7, Table 7) | % Max response (HepG2 cells; Table 4) | also measured |
| --- | --- | --- | --- | --- |
| Cc1ccc(-c2ccc3ncc4[nH]c(=O)n(-c5cccc(C(F)(F)F)c5)c4c3c2)cn1 | 443 nM | 59 nM | – | – |
| Nc1ccc(-c2ccc3ncc4[nH]c(=O)n(-c5cccc(C(F)(F)F)c5)c4c3c2)cc1 | 630 nM | 153 nM | – | – |
| CC(=O)Nc1ccc(-c2ccc3ncc4[nH]c(=O)n(-c5cccc(C(F)(F)F)c5)c4c3c2)cn1 | 123 nM | 35 nM | – | – |
| O=c1[nH]c2cnc3ccc(-c4ccc(O)cc4)cc3c2n1-c1cccc(C(F)(F)F)c1 | 1420 nM | 398 nM | – | – |
| Nc1cccc(-c2ccc3ncc4[nH]c(=O)n(-c5cccc(C(F)(F)F)c5)c4c3c2)c1 | 531 nM | 137 nM | – | – |
| O=c1[nH]c2cnc3ccc(-c4ccncc4)cc3c2n1-c1cccc(C(F)(F)F)c1 | 1240 nM | 211 nM | – | – |
| O=c1[nH]c2cnc3ccc(-c4ccc5[nH]cnc5c4)cc3c2n1-c1cccc(C(F)(F)F)c1 | 543 nM | 90 nM | – | – |
| CS(=O)(=O)c1ccc(-c2ccc3ncc4[nH]c(=O)n(-c5cccc(C(F)(F)F)c5)c4c3c2)cc1 | 2050 nM | 622 nM | – | – |
| O=c1[nH]c2cnc3ccc(-c4cnc5ccccc5c4)cc3c2n1-c1cccc(C(F)(F)F)c1 | 212000 nM | 5780 nM | – | – |
| Nc1ncc(-c2ccc3ncc4[nH]c(=O)n(-c5cccc(C(F)(F)F)c5)c4c3c2)cn1 | 246 nM | 57 nM | – | – |
| Cn1c(=O)n(-c2cccc(C(F)(F)F)c2)c2c3cc(-c4cccc(N)c4)ccc3ncc21 | 69 nM | 16 nM | – | – |
| O=c1[nH]c2cnc3ccc(-c4cccnc4)cc3c2n1-c1cccc(C(F)(F)F)c1 | 5570 nM | 1400 nM | – | – |
| NC(=O)c1ccc(-c2ccc3ncc4[nH]c(=O)n(-c5cccc(C(F)(F)F)c5)c4c3c2)cc1 | 227 nM | 45 nM | – | – |
| Cn1c(=O)n(-c2cccc(C(F)(F)F)c2)c2c3cc(-c4ccc(N)cc4)ccc3ncc21 | 69 nM | 16 nM | – | – |
| Cn1c(=O)n(-c2cccc(C(F)(F)F)c2)c2c3cc(-c4ccc(C(N)=O)cc4)ccc3ncc21 | 109 nM | 20 nM | – | – |
| Cn1c(=O)n(-c2cccc(C(F)(F)F)c2)c2c3cc(-c4ccc(C(N)=O)nc4)ccc3ncc21 | 43 nM | 8 nM | – | – |
| Cn1c(=O)n(-c2cccc(C(F)(F)F)c2)c2c3cc(-c4cnc(N)nc4)ccc3ncc21 | 31 nM | 7 nM | – | – |
| Nc1ccc(-c2ccc3ncc4[nH]c(=O)n(-c5cccc(C(F)(F)F)c5)c4c3c2)cn1 | 88 nM | 105 nM | – | – |
| Cc1cc2cnc3ccc(-c4ccc(N)nc4)cc3c2n(-c2cccc(C(F)(F)F)c2)c1=O | – | – | – | EC50 ([1]; Plasmodium falciparum, 3D7, read-out: Gametocytocidal activity EC50, Table 8): 46 nM; EC50 ([2]; 3D7, Table 8): 205 nM |
| COc1cccc2c1C(=O)c1c(O)c3c(c(O)c1C2=O)C[C@@](O)(C(=O)CO)C[C@@H]3O[C@H]1C[C@H](N)[C@H](O)[C@H](C)O1 [Adriamycin] | – | – | −35% | IC50 [1, 4]: 526 nM; IC50 (μM) in HepG2 cells (HepG2 cells; Table 4): Inactive |
| CN(C)C/C=C/C(=O)Nc1cc2c(Nc3ccc(F)c(Cl)c3)ncnc2cc1O[C@H]1CCOC1 [Afatinib] | – | – | −100% | IC50 [1, 4]: 935 nM; IC50 (HepG2 cells; [5]): 18.7 µM |
| CO[C@H]1/C=C\C=C(/C)C(=O)NC2=CC(=O)C(NCCN(C)C)=C(C[C@@H](C)C[C@H](OC)[C@H](O)[C@@H](C)/C=C(\C)[C@@H]1OC(N)=O)C2=O [Alvespimycin] | – | – | −94% | IC50 (HepG2 cells; [5]): 0.118 µM |

| SMILES | EC50 [1, 3] | EC50 ([2]; 3D7, Table 7) | % Max response (HepG2 cells; Table 4) | also measured |
| --- | --- | --- | --- | --- |
| CO[C@H]1O[C@@H]2O[C@@]3(C)CC[C@H]4[C@H](C)CC[C@@H]([C@H]1C)[C@@]24OO3 [Artemether] | – | – | 7% | IC50 (μM) in HepG2 cells (HepG2 cells; Table 4): Inactive |
| C[C@@H]1CC[C@H]2[C@@H](C)C(=O)O[C@@H]3O[C@@]4(C)CC[C@@H]1[C@]32OO4 [Artemisinin, artemisinin] | – | – | 18% | IC50 [1, 4]: 100 nM; IC50 (μM) in HepG2 cells (HepG2 cells; Table 4): Inactive |
| C[C@H]1[C@@H](O)O[C@@H]2O[C@@]3(C)CC[C@H]4[C@H](C)CC[C@@H]1[C@@]24OO3 [Artenimol (DHA)] | – | – | 20% | IC50 [1, 6]: 77 nM; % Max response (HepG2 cells; Table 2): 20%; IC50 (μM) in HepG2 (HepG2 cells; Table 2): Inactive; IC50 (μM) in HepG2 cells (HepG2 cells; Table 4): Inactive |
| C[C@H]1[C@H](OC(=O)CCC(=O)O)O[C@@H]2O[C@@]3(C)CC[C@H]4[C@H](C)CC[C@@H]1[C@@]24OO3 [Artesunate] | – | – | 18% | IC50 (μM) in HepG2 cells (HepG2 cells; Table 4): Inactive |
| CC(C)C[C@H](NC(=O)[C@H](Cc1ccccc1)NC(=O)c1cnccn1)B(O)O [Bortezomib] | – | – | −82% | IC50 [1, 4]: 100 nM; IC50 (HepG2 cells; [5]): 0.148 µM |
| CC(C)C[C@H](NC(=O)[C@H](CCc1ccccc1)NC(=O)CN1CCOCC1)C(=O)N[C@@H](Cc1ccccc1)C(=O)N[C@@H](CC(C)C)C(=O)[C@@]1(C)CO1 [Carfilzomib] | – | – | −79% | IC50 (HepG2 cells; [5]): 1.18 µM |
| S=C(SSC(=S)N1CCCCC1)N1CCCCC1 [Dicyclopentamethylene-thiuram disulfide, reference compound] | – | – | – | IC50 [1, 7]: 274 nM |
| S=C(SSC(=S)N1CCCCC1)N1CCCCC1 [Dicyclopentamethylenethiram disulfide] | – | – | 0% | % Max response (HepG2 cells; Table 2): 0%; IC50 (μM) in HepG2 (HepG2 cells; Table 2): Inactive; IC50 (μM) in HepG2 cells (HepG2 cells; Table 4): Inactive |
| c1ccc2c(c1)[I+]c1ccccc1-2 [Diphenyleneiodonium] | – | – | – | IC50 [1, 4]: 100 nM |
| [O-][n+]1ccccc1SSc1cccc[n+]1[O-] [Dipyrithione] | – | – | −93% | IC50 [1, 4]: 200 nM; IC50 (HepG2 cells; [5]): 10.8 µM |
| CN(NC(=O)CC(=O)NN(C)C(=S)c1ccccc1)C(=S)c1ccccc1 [Elesclomol, elesclomol, reference compound] | – | – | – | IC50 [1, 7]: 6 nM |
| CO[C@@H]1[C@@H](OC)[C@H](C)[C@@](O)(CC(=O)O)O[C@H]1[C@H](C)[C@H]1O[C@@]2(CC[C@@](C)([C@H]3CC[C@@](C)([C@@H]4O[C@@H]([C@H]5O[C@](C)(O)[C@H](C)C[C@@H]5C)C[C@@H]4O[C@@H]4C[C@H](OC)[C@@H](OC)[C@H](C)O4)O3)O2)C[C@H](O)[C@H]1C [Maduramicin] | – | – | – | IC50 [1, 7]: 47 nM; IC50 [1, 8]: 3 to 50 nM; Emax (HepG2 cells; Homo sapiens, HepG2, read-out: % Max response): -42%; IC50 (HepG2 cells; Homo sapiens, HepG2, read-out: IC50 (μM) in HepG2): 37.2 µM; IC50 (HepG2 cells; [5]): 37.2 µM |
| OC(c1cc(C(F)(F)F)nc2c(C(F)(F)F)cccc12)C1CCCCN1 (centres unmarked) [Mefloquine, mefloquine] | – | – | −97% | IC50 (HepG2 cells; [5]): 29.6 µM |
| CCNC(=O)c1noc(-c2cc(C(C)C)c(O)cc2O)c1-c1ccc(CN2CCOCC2)cc1 [NVP-AUY922] | – | – | −88% | IC50 [1, 8]: 3 to 50 nM; IC50 (HepG2 cells; [5]): 0.148 µM |
| CC[C@@H](C(=O)O)[C@@H]1O[C@@H]([C@@H](C)[C@H](O)[C@H](C)C(=O)[C@H](CC)[C@H]2O[C@]3(C=C[C@@H](O)[C@]4(CC[C@@](C)([C@H]5CC[C@](O)(CC)[C@H](C)O5)O4)O3)[C@H](C)C[C@@H]2C)[C@@H](C)C[C@@H]1C [Narasin] | – | – | −98% | IC50 [1, 8]: 3 to 50 nM; IC50 (HepG2 cells; [5]): 27 µM |
| COC(=O)C[C@](O)(CCCC(C)(C)O)C(=O)O[C@@H]1C(OC)=C[C@]23CCCN2CCc2cc4c(cc2[C@H]13)OCO4 [Omacetaxine] | – | – | −27% | IC50 [1, 6]: 83 nM; % Max response (HepG2 cells; Table 2): −27%; IC50 (μM) in HepG2 (HepG2 cells; Table 2): Curve not complete; IC50 (μM) in HepG2 cells (HepG2 cells; Table 4): Curve not complete |
| O=C1C(=O)c2ncccc2-c2cccnc21 [Phanquinone] | – | – | 23% | IC50 [1, 4]: 100 nM; IC50 (μM) in HepG2 cells (HepG2 cells; Table 4): Inactive |
| COc1ccc(C[C@H](N)C(=O)N[C@H]2[C@@H](O)[C@H](n3cnc4c(N(C)C)ncnc43)O[C@@H]2CO)cc1 [Puromycin] | – | – | −71% | IC50 [1, 4]: 1050 nM; IC50 (HepG2 cells; [5]): 11.8 µM |
| CN(C)C(=S)SSC(=S)N(C)C [Thiram] | – | – | 23% | IC50 (μM) in HepG2 cells (HepG2 cells; Table 4): Inactive |
| CC(=O)Nc1cccc(-n2c(=O)n(C3CC3)c(=O)c3c(Nc4ccc(I)cc4F)n(C)c(=O)c(C)c32)c1 [Trametinib] | – | – | 14% | IC50 (μM) in HepG2 cells (HepG2 cells; Table 4): Inactive |
| COCCn1c2c([n+](Cc3cnccn3)c1C)C(=O)c1ccccc1C2=O [YM155] | – | – | −92% | IC50 [1, 4]: 372 nM; IC50 (HepG2 cells; [5]): 4.69 µM |

Reference: US20160264570A1, “METHOD OF BLOCKING TRANSMISSION OF MALARIAL PARASITE” (THE UNITED STATES OF AMERICA, AS REPRESENTED BY THE …, priority 2013, published 2016)
